The text below walks through data of US20130053245A1, “Method and Substance for Promoting Plant Growth” (World Grow International Corp., priority 2009, published 2013).

This test has as its system baby corn seeds. Briefly: root length developed on baby corn seeds after treatment with homeopathic growth stimulant. Type of test: in vivo. As for the experimental part:
The length of roots that developed on the baby corn seeds, after treatment of the seeds with various concentrations of homeopathic growth stimulant, was measured. […] This critical transition indicates a fundamental difference in the chemical structure of the resulting plant enhancement substance by molecular cloistering. The criticality and creation of a chemically different substance brought about by dilution is indicated by the synergy of combining the resulting dilution medium and dissolved homeopathic growth stimulant with a nutrient source such as a fertilizer. This synergy is evidenced by the multiplication of growth increase in target plants resulting from the combination. […] However, treatment of a target plant using a combination of dilution medium and dissolved homeopathic growth stimulant along with a nutrient source increases plant growth tenfold.

Regarding `O.O.O.O.O.O=S(=O)([O-])[O-].[Cu+2]` [CuSO4, copper sulfate pentahydrate (CuSO4.5H2O)], for the setting “high concentration”, the root development entry is recorded as “arrests root development”. In addition, the “root growth (length of roots)” value (higher concentrations of CuSO4 in the homeopathic growth stimulant) was “arrest root growth” and the “root growth (length of roots)” value (lower concentrations of CuSO4, below the homeopathic barrier or threshold concentration) was “enhance root growth”. The root growth entry (homeopathic concentration (3-12X potency)) is reported as “acts as a root growth enhancer”.
